{"source": "patent US8357634B2", "about": "“N-alkoxycarboxamides and their use as microbiocides” (Syngenta Crop Protection LLC, priority 2009, dated 2013)", "key": {"[1]": {"test_system": "Puccinia recondita", "assay": "Example B-10: Puccinia recondita / wheat / leaf disc preventative (comparative)", "assay_type": "in vivo", "details": "8 dpi", "protocol": "Puccinia recondita/Wheat/Leaf Disc Preventative (Brown Rust) Wheat leaf segments were placed on agar in multiwell plates (24-well format) and sprayed with test solutions. After drying, the leaf disks were inoculated with a spore suspension of the fungus. After appropriate incubation the activity of a compound was assessed 8 dpi (days after inoculation) as preventive fungicidal activity."}, "[2]": {"test_system": "Monographella nivalis (anamorph: Fusarium nivale, Microdochium nivale)", "assay": "Example B-4: Action against Monographella nivalis, fungal growth assay", "assay_type": "cell-based", "details": "0.002% active ingredient, PDB broth, 24° C., photometric after 72 hrs", "protocol": "(§1) Action Against Monographella nivalis (anamorph: Fusarium nivale, Microdochium nivale; Snow Mould)—Fungal Growth Assay Conidia of the fungus from cryogenic storage were directly mixed into nutrient broth (PDB potato dextrose broth). After placing a DMSO-solution of the test compounds (0.002% active ingredient) into a microtiter plate (96-well format) the nutrient broth containing the fungal spores was added. The test plates were incubated at 24° C. and the inhibition of growth was measured photometrically after 72 hrs (0=no growth inhibition, ratings of 80% to 99% mean good to very good inhibition, 100%=complete inhibition)."}, "[3]": {"test_system": "Mycosphaerella arachidis (Cercospora arachidicola)", "assay": "Example B-15: Mycosphaerella arachidis / liquid culture (comparative)", "assay_type": "cell-based", "details": "24° C., photometric after 6-7 days, read-out: inhibition of growth", "protocol": "Mycosphaerella arachidis (Cercospora arachidicola)/Liquid Culture (Early Leaf Spot) Conidia of the fungus from cryogenic storage were directly mixed into nutrient broth (PDB potato dextrose broth). After placing a (DMSO) solution of the test compounds into a microtiter plate (96-well format) the nutrient broth containing the fungal spores was added. The test plates were incubated at 24° C. and the inhibition of growth is measured photometrically after 6-7 days."}, "[4]": {"test_system": "Septoria tritici", "assay": "Example B-3: Action against Septoria tritici, fungal growth assay", "assay_type": "cell-based", "details": "Zymoseptoria tritici; 0.002% active ingredient; PDB broth, 24° C., photometric after 72 hrs", "protocol": "as §1, with “Septoria tritici—Fungal” for “Monographella nivalis (anamorph: Fusarium nivale, Microdochium nivale; Snow Mould)—Fungal”, “(DMSO) solution” for “DMSO-solution”, “determined” for “measured”, “hrs. The activity of a compound was expressed as fungal growth inhibition” for “hrs”"}, "[5]": {"test_system": "Erysiphe graminis f. sp. tritici", "assay": "Example B-5: Action against Erysiphe graminis f. sp. tritici (wheat powdery mildew), wheat leaf segments", "assay_type": "in vivo", "details": "Blumeria graminis, foliar, 168 h, 0.02% active ingredient, 7 days after inoculation, read-out: preventive fungicidal activity (inhibition)", "protocol": "Action Against Erysiphe graminis f. sp. tritici (Wheat Powdery Mildew) Wheat leaf segments were placed on agar in multiwell plates (24-well format) and sprayed with test solutions (0.02% active ingredient). After drying, the leaf disks were inoculated with a spore suspension of the fungus. After appropriate incubation the activity of a compound was assessed 7 days after inoculation as preventive fungicidal activity."}, "[6]": {"test_system": "Phaeosphaeria nodorum (Septoria nodorum)", "assay": "Example B-11: Phaeosphaeria nodorum / wheat / leaf disc preventative (comparative)", "assay_type": "in vivo", "details": "4 dpi", "protocol": "Phaeosphaeria nodorum (Septoria nodorum)/Wheat/Leaf Disc Preventative (Glume Blotch) Wheat leaf segments were placed on agar in a multiwell plate (24-well format) and sprayed with test solutions. After drying, the leaf disks were inoculated with a spore suspension of the fungus. After appropriate incubation the activity of a compound was assessed 4 dpi (days after inoculation) as preventive fungicidal activity."}, "[7]": {"test_system": "Pyrenophora teres", "assay": "Example B-8: Action against Pyrenophora teres (net blotch) on barley leaf segments", "assay_type": "in vivo", "details": "foliar, 96 h, 0.02% active ingredient, 4 days after inoculation, read-out: preventive fungicidal activity (inhibition)", "protocol": "Action Against Pyrenophora teres (Net Blotch) on Barley Barley leaf segments were placed on agar in multiwell plates (24-well format) and sprayed with test solutions (0.02% active ingredient). After drying, the leaf disks were inoculated with a spore suspension of the fungus. After appropriate incubation the activity of a compound was assessed 4 days after inoculation as preventive fungicidal activity."}, "[8]": {"test_system": "Botryotinia fuckeliana (Botrytis cinerea)", "assay": "Example B-14: Botryotinia fuckeliana (Botrytis cinerea) / liquid culture (comparative)", "assay_type": "cell-based", "details": "24° C., photometric after 3-4 days, read-out: inhibition of growth", "protocol": "Botryotinia fuckeliana (Botrytis cinerea)/Liquid Culture (Gray Mould) Conidia of the fungus from cryogenic storage were directly mixed into nutrient broth. After placing a (DMSO) solution of the test compounds into a microtiter plate (96-well format) the nutrient broth containing the fungal spores was added. The test plates were incubated at 24° C. and the inhibition of growth is determined photometrically after 3-4 days."}, "[9]": {"test_system": "Gaeumannomyces graminis", "assay": "Example B-17: Gaeumannomyces graminis / liquid culture (comparative)", "assay_type": "cell-based", "details": "24 C, photometric after 2-3 days, read-out: inhibition of growth", "protocol": "Gaeumannomyces graminis/Liquid Culture (Take-All of Cereals) Mycelial fragments of the fungus from cryogenic storage were directly mixed into nutrient broth (PDB potato dextrose broth). After placing a (DMSO) solution of the test compounds into a microtiter plate (96-well format) the nutrient broth containing the fungal spores was added. The test plates were incubated at 24 C and the inhibition of growth was determined photometrically after 2-3 days."}, "[10]": {"test_system": "Monopraphella nivalis (Microdochium nivale)", "assay": "Example B-18: Monographella nivalis (Microdochium nivale) / liquid culture (comparative)", "assay_type": "cell-based", "details": "24° C., photometric after 4-6 days, read-out: inhibition of growth", "protocol": "Monopraphella nivalis (Microdochium nivale)/Liquid Culture (Foot Rot Cereals Conidia of the fungus from cryogenic storage were directly mixed into nutrient broth (PDB potato dextrose broth). After placing a (DMSO) solution of the test compounds into a microtiter plate (96-well format) the nutrient broth containing the fungal spores was added. The test plates were incubated at 24° C. and the inhibition of growth is measured photometrically after 4-6 days."}, "[11]": {"test_system": "Alternaria solani", "assay": "Example B-13: Alternaria solani / tomato / leaf disc (comparative)", "assay_type": "in vivo", "details": "4 dpi", "protocol": "Alternaria solani/Tomato/Leaf Disc (Early Blight) Tomato leaf disks were placed on water agar in multiwell plates (24-well format) and sprayed with test solutions. After drying, the leaf disks were inoculated with a spore suspension of the fungus. After appropriate incubation the activity of a compound was assessed 4 dpi (days after inoculation) as preventive fungicidal activity."}, "[12]": {"test_system": "Pyrenophora teres", "assay": "Example B-12: Pyrenophora teres / barley / leaf disc preventive (comparative)", "assay_type": "in vivo", "details": "4 dpi", "protocol": "Pyrenophora teres/Barley/Leaf Disc Preventive (Net Blotch) Barley leaf segments were placed on agar in a multiwell plate (24-well format) and sprayed with test solutions. After drying, the leaf disks were inoculated with a spore suspension of the fungus. After appropriate incubation the activity of a compound was assessed 4 dpi (days after inoculation) as preventive fungicidal activity."}}}
{"smiles": "CON(C(=O)c1cn(C)nc1C(F)F)C(C)c1ccc(Cl)cc1Cl", "note": "(stereo not shown) [Compound 1.023]", "values": [{"measurement": "preventive fungicidal activity", "setting": "[1]; 20 ppm", "result": 0}, {"measurement": "preventive fungicidal activity", "setting": "[1]; 60 ppm", "result": 50}, {"measurement": "preventive fungicidal activity", "setting": "[1]; 200 ppm", "result": 70}, {"measurement": "inhibition at 0.002 % strength", "setting": "[2]", "result": "≥ 50", "unit": "%"}, {"measurement": "inhibition at 6 ppm", "setting": "[3]; 6 ppm", "result": 100, "unit": "%"}, {"measurement": "inhibition at 20 ppm", "setting": "[3]; 20 ppm", "result": 100, "unit": "%"}, {"measurement": "inhibition at 60 ppm", "setting": "[3]; 60 ppm", "result": 100, "unit": "%"}, {"measurement": "inhibition at 0.002 % strength", "setting": "[4]", "result": "≥ 80", "unit": "%"}, {"measurement": "inhibition at 0.02 % strength", "setting": "[5]", "result": "≥ 80", "unit": "%"}, {"measurement": "preventive fungicidal activity", "setting": "[6]; 20 ppm", "result": 70}, {"measurement": "preventive fungicidal activity", "setting": "[6]; 60 ppm", "result": 90}, {"measurement": "preventive fungicidal activity", "setting": "[6]; 200 ppm", "result": 90}, {"measurement": "inhibition at 0.02 % strength", "setting": "[7]", "result": "≥ 80", "unit": "%"}, {"measurement": "inhibition at 20 ppm", "setting": "[8]; 20 ppm", "result": 20, "unit": "%"}, {"measurement": "inhibition at 60 ppm", "setting": "[8]; 60 ppm", "result": 100, "unit": "%"}, {"measurement": "inhibition at 200 ppm", "setting": "[8]; 200 ppm", "result": 100, "unit": "%"}, {"measurement": "inhibition at 6 ppm", "setting": "[9]; 6 ppm", "result": 0, "unit": "%"}, {"measurement": "inhibition at 20 ppm", "setting": "[9]; 20 ppm", "result": 0, "unit": "%"}, {"measurement": "inhibition at 60 ppm", "setting": "[9]; 60 ppm", "result": 50, "unit": "%"}, {"measurement": "inhibition at 6 ppm", "setting": "[10]; 6 ppm", "result": 0, "unit": "%"}, {"measurement": "inhibition at 20 ppm", "setting": "[10]; 20 ppm", "result": 0, "unit": "%"}, {"measurement": "inhibition at 60 ppm", "setting": "[10]; 60 ppm", "result": 50, "unit": "%"}, {"measurement": "preventive fungicidal activity", "setting": "[11]; 20 ppm", "result": 90}, {"measurement": "preventive fungicidal activity", "setting": "[11]; 60 ppm", "result": 100}, {"measurement": "preventive fungicidal activity", "setting": "[11]; 200 ppm", "result": 100}, {"measurement": "preventive fungicidal activity", "setting": "[12]; 20 ppm", "result": 100}, {"measurement": "preventive fungicidal activity", "setting": "[12]; 60 ppm", "result": 100}, {"measurement": "preventive fungicidal activity", "setting": "[12]; 200 ppm", "result": 100}]}
